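Grown in 96-well plates, cells were treated for 48 hours with each compound at five concentrations. Insufficient inhibition: endpoint recorded as highest concentration tested. Definition used: TGI = concentration required for complete inhibition of growth.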
system: MDA-N; test: inhibition of tumour cell growth, NCI panel, 48 h

SMILES | TGI [µM]
O=C(NCCCNC(=O)c1ccc2c(O)c(O)ccc2c1)c1ccc2c(O)c(O)ccc2c1 | 41.4
COc1cc(/C=C2\C[C@H]3[C@@H]4CC=C5C[C@@H](O)CC[C@]5(C)[C@H]4CC[C@]3(C)C2=O)cc(OC)c1OC | 87.1
CC1=C(Br)C(Br)=C(C)S1=O | 28.7
O=C1NC(=O)C(c2c[nH]c3cc(Br)ccc23)=C1c1cn(C(c2ccccc2)(c2ccccc2)c2ccccc2)cn1 | 27.8
Cc1cc(C)cc(C(=N)c2ccccc2Cc2cccc3ccccc23)c1 | 54.2
CSC1=C(SC)SC(=C2SC3=C(SC(=C4SCCS4)S3)S2)S1 | > 100
COn1cc(C=O)c2ccccc21 | 62.7
C#CCn1ncc2c(SCc3ccccc3)ncnc21 | > 100
CC1=C(C(N)=O)C(c2ccncc2)C(C#N)=C2SCC(=O)N12 (configuration not stated) | > 100
CCN(CC)c1ccc2cc(-c3nnc(-c4ccccc4)o3)c(=O)oc2c1 | > 100
O=C(CC(c1ccccc1)N1CCCCC1)c1ccccc1 (configuration not stated) | 27.3
O=C(O)c1nc(-c2ccccn2)c(-c2ccccn2)nc1C(=O)O | 29.2
Cc1cccc2c1[C@]13OC(C)[C@]4(C)CC5OC(=O)[C@@]1(C)[C@@H]5[C@]34C(=O)O2 (some centres not stated) | > 100

system: NCI-H522 lung; test: inhibition of tumour cell growth, NCI panel, 48 h

SMILES | TGI [µM]
O=C(NCCCNC(=O)c1ccc2c(O)c(O)ccc2c1)c1ccc2c(O)c(O)ccc2c1 | 48.5
COc1cc(/C=C2\C[C@H]3[C@@H]4CC=C5C[C@@H](O)CC[C@]5(C)[C@H]4CC[C@]3(C)C2=O)cc(OC)c1OC | 67.8
CC1=C(Br)C(Br)=C(C)S1=O | 23.8
O=C1NC(=O)C(c2c[nH]c3cc(Br)ccc23)=C1c1cn(C(c2ccccc2)(c2ccccc2)c2ccccc2)cn1 | 34
Cc1cc(C)cc(C(=N)c2ccccc2Cc2cccc3ccccc23)c1 | 24.4
CSC1=C(SC)SC(=C2SC3=C(SC(=C4SCCS4)S3)S2)S1 | > 100
COn1cc(C=O)c2ccccc21 | > 100
C#CCn1ncc2c(SCc3ccccc3)ncnc21 | > 100
CC1=C(C(N)=O)C(c2ccncc2)C(C#N)=C2SCC(=O)N12 (configuration not stated) | > 100
CCN(CC)c1ccc2cc(-c3nnc(-c4ccccc4)o3)c(=O)oc2c1 | > 100
O=C(CC(c1ccccc1)N1CCCCC1)c1ccccc1 (configuration not stated) | 28.6
O=C(O)c1nc(-c2ccccn2)c(-c2ccccn2)nc1C(=O)O | 23.2
Cc1cccc2c1[C@]13OC(C)[C@]4(C)CC5OC(=O)[C@@]1(C)[C@@H]5[C@]34C(=O)O2 (some centres not stated) | > 100

system: BT-549 breast; test: inhibition of tumour cell growth, NCI panel, 48 h

SMILES | TGI [µM]
O=C(NCCCNC(=O)c1ccc2c(O)c(O)ccc2c1)c1ccc2c(O)c(O)ccc2c1 | 35.2
COc1cc(/C=C2\C[C@H]3[C@@H]4CC=C5C[C@@H](O)CC[C@]5(C)[C@H]4CC[C@]3(C)C2=O)cc(OC)c1OC | > 100
CC1=C(Br)C(Br)=C(C)S1=O | 40.4
O=C1NC(=O)C(c2c[nH]c3cc(Br)ccc23)=C1c1cn(C(c2ccccc2)(c2ccccc2)c2ccccc2)cn1 | 38.8
Cc1cc(C)cc(C(=N)c2ccccc2Cc2cccc3ccccc23)c1 | > 100
CSC1=C(SC)SC(=C2SC3=C(SC(=C4SCCS4)S3)S2)S1 | > 100
COn1cc(C=O)c2ccccc21 | > 100
C#CCn1ncc2c(SCc3ccccc3)ncnc21 | > 100
CC1=C(C(N)=O)C(c2ccncc2)C(C#N)=C2SCC(=O)N12 (configuration not stated) | > 100
CCN(CC)c1ccc2cc(-c3nnc(-c4ccccc4)o3)c(=O)oc2c1 | > 100
O=C(CC(c1ccccc1)N1CCCCC1)c1ccccc1 (configuration not stated) | 34.8
O=C(O)c1nc(-c2ccccn2)c(-c2ccccn2)nc1C(=O)O | 37.6
Cc1cccc2c1[C@]13OC(C)[C@]4(C)CC5OC(=O)[C@@]1(C)[C@@H]5[C@]34C(=O)O2 (some centres not stated) | > 100

system: UACC-62 melanoma; test: inhibition of tumour cell growth, NCI panel, 48 h

SMILES | TGI [µM]
O=C(NCCCNC(=O)c1ccc2c(O)c(O)ccc2c1)c1ccc2c(O)c(O)ccc2c1 | > 90
COc1cc(/C=C2\C[C@H]3[C@@H]4CC=C5C[C@@H](O)CC[C@]5(C)[C@H]4CC[C@]3(C)C2=O)cc(OC)c1OC | > 100
CC1=C(Br)C(Br)=C(C)S1=O | 85.8
O=C1NC(=O)C(c2c[nH]c3cc(Br)ccc23)=C1c1cn(C(c2ccccc2)(c2ccccc2)c2ccccc2)cn1 | > 100
Cc1cc(C)cc(C(=N)c2ccccc2Cc2cccc3ccccc23)c1 | 29
CSC1=C(SC)SC(=C2SC3=C(SC(=C4SCCS4)S3)S2)S1 | > 100
COn1cc(C=O)c2ccccc21 | > 100
C#CCn1ncc2c(SCc3ccccc3)ncnc21 | > 100
CC1=C(C(N)=O)C(c2ccncc2)C(C#N)=C2SCC(=O)N12 (configuration not stated) | > 100
CCN(CC)c1ccc2cc(-c3nnc(-c4ccccc4)o3)c(=O)oc2c1 | > 100
O=C(CC(c1ccccc1)N1CCCCC1)c1ccccc1 (configuration not stated) | 30.7
O=C(O)c1nc(-c2ccccn2)c(-c2ccccn2)nc1C(=O)O | 6.27
Cc1cccc2c1[C@]13OC(C)[C@]4(C)CC5OC(=O)[C@@]1(C)[C@@H]5[C@]34C(=O)O2 (some centres not stated) | > 100

system: HS 578T breast; test: inhibition of tumour cell growth, NCI panel, 48 h

SMILES | TGI [µM]
O=C(NCCCNC(=O)c1ccc2c(O)c(O)ccc2c1)c1ccc2c(O)c(O)ccc2c1 | 56.1
COc1cc(/C=C2\C[C@H]3[C@@H]4CC=C5C[C@@H](O)CC[C@]5(C)[C@H]4CC[C@]3(C)C2=O)cc(OC)c1OC | > 100
CC1=C(Br)C(Br)=C(C)S1=O | > 100
O=C1NC(=O)C(c2c[nH]c3cc(Br)ccc23)=C1c1cn(C(c2ccccc2)(c2ccccc2)c2ccccc2)cn1 | > 100
Cc1cc(C)cc(C(=N)c2ccccc2Cc2cccc3ccccc23)c1 | 21.7
CSC1=C(SC)SC(=C2SC3=C(SC(=C4SCCS4)S3)S2)S1 | > 100
COn1cc(C=O)c2ccccc21 | > 100
C#CCn1ncc2c(SCc3ccccc3)ncnc21 | > 100
CC1=C(C(N)=O)C(c2ccncc2)C(C#N)=C2SCC(=O)N12 (configuration not stated) | > 100
CCN(CC)c1ccc2cc(-c3nnc(-c4ccccc4)o3)c(=O)oc2c1 | > 100
O=C(CC(c1ccccc1)N1CCCCC1)c1ccccc1 (configuration not stated) | 70.5
O=C(O)c1nc(-c2ccccn2)c(-c2ccccn2)nc1C(=O)O | > 72.6
Cc1cccc2c1[C@]13OC(C)[C@]4(C)CC5OC(=O)[C@@]1(C)[C@@H]5[C@]34C(=O)O2 (some centres not stated) | > 100

system: KM12 colon; test: inhibition of tumour cell growth, NCI panel, 48 h

SMILES | TGI [µM]
O=C(NCCCNC(=O)c1ccc2c(O)c(O)ccc2c1)c1ccc2c(O)c(O)ccc2c1 | 39.7
COc1cc(/C=C2\C[C@H]3[C@@H]4CC=C5C[C@@H](O)CC[C@]5(C)[C@H]4CC[C@]3(C)C2=O)cc(OC)c1OC | > 100
CC1=C(Br)C(Br)=C(C)S1=O | 36.2
O=C1NC(=O)C(c2c[nH]c3cc(Br)ccc23)=C1c1cn(C(c2ccccc2)(c2ccccc2)c2ccccc2)cn1 | > 100
Cc1cc(C)cc(C(=N)c2ccccc2Cc2cccc3ccccc23)c1 | 24
CSC1=C(SC)SC(=C2SC3=C(SC(=C4SCCS4)S3)S2)S1 | > 100
COn1cc(C=O)c2ccccc21 | > 56.5
C#CCn1ncc2c(SCc3ccccc3)ncnc21 | > 100
CC1=C(C(N)=O)C(c2ccncc2)C(C#N)=C2SCC(=O)N12 (configuration not stated) | > 100
CCN(CC)c1ccc2cc(-c3nnc(-c4ccccc4)o3)c(=O)oc2c1 | > 100
O=C(CC(c1ccccc1)N1CCCCC1)c1ccccc1 (configuration not stated) | 22.6
O=C(O)c1nc(-c2ccccn2)c(-c2ccccn2)nc1C(=O)O | 17.9
Cc1cccc2c1[C@]13OC(C)[C@]4(C)CC5OC(=O)[C@@]1(C)[C@@H]5[C@]34C(=O)O2 (some centres not stated) | > 100

system: A549 NSCLC; test: inhibition of tumour cell growth, NCI panel, 48 h

SMILES | TGI [µM]
O=C(NCCCNC(=O)c1ccc2c(O)c(O)ccc2c1)c1ccc2c(O)c(O)ccc2c1 | > 100
COc1cc(/C=C2\C[C@H]3[C@@H]4CC=C5C[C@@H](O)CC[C@]5(C)[C@H]4CC[C@]3(C)C2=O)cc(OC)c1OC | > 100
CC1=C(Br)C(Br)=C(C)S1=O | 79.8
O=C1NC(=O)C(c2c[nH]c3cc(Br)ccc23)=C1c1cn(C(c2ccccc2)(c2ccccc2)c2ccccc2)cn1 | 27.3
Cc1cc(C)cc(C(=N)c2ccccc2Cc2cccc3ccccc23)c1 | 42.4
CSC1=C(SC)SC(=C2SC3=C(SC(=C4SCCS4)S3)S2)S1 | > 100
COn1cc(C=O)c2ccccc21 | > 100
C#CCn1ncc2c(SCc3ccccc3)ncnc21 | > 100
CC1=C(C(N)=O)C(c2ccncc2)C(C#N)=C2SCC(=O)N12 (configuration not stated) | > 100
CCN(CC)c1ccc2cc(-c3nnc(-c4ccccc4)o3)c(=O)oc2c1 | > 100
O=C(CC(c1ccccc1)N1CCCCC1)c1ccccc1 (configuration not stated) | 41.3
O=C(O)c1nc(-c2ccccn2)c(-c2ccccn2)nc1C(=O)O | 11.9
Cc1cccc2c1[C@]13OC(C)[C@]4(C)CC5OC(=O)[C@@]1(C)[C@@H]5[C@]34C(=O)O2 (some centres not stated) | > 100

system: RPMI-8226 leukemia; test: inhibition of tumour cell growth, NCI panel, 48 h

SMILES | TGI [µM]
O=C(NCCCNC(=O)c1ccc2c(O)c(O)ccc2c1)c1ccc2c(O)c(O)ccc2c1 | > 100
COc1cc(/C=C2\C[C@H]3[C@@H]4CC=C5C[C@@H](O)CC[C@]5(C)[C@H]4CC[C@]3(C)C2=O)cc(OC)c1OC | 45.4
CC1=C(Br)C(Br)=C(C)S1=O | 24
O=C1NC(=O)C(c2c[nH]c3cc(Br)ccc23)=C1c1cn(C(c2ccccc2)(c2ccccc2)c2ccccc2)cn1 | 36.8
Cc1cc(C)cc(C(=N)c2ccccc2Cc2cccc3ccccc23)c1 | 67
CSC1=C(SC)SC(=C2SC3=C(SC(=C4SCCS4)S3)S2)S1 | > 100
